Source: ChEMBL document CHEMBL1201862, “PubChem BioAssay data set” (2004)
Calls of active or inactive are those of the source.

What was measured:
[1] = molecular target: T1, Tyrosine-protein phosphatase non-receptor type 7 (Homo sapiens, UniProt P35236); assay: inhibition of hematopoietic tyrosine phosphatase HePTP – biochemical, set 2, SAR follow-up (AID 449736); type: functional
T1 sequence (P35236 whole entry): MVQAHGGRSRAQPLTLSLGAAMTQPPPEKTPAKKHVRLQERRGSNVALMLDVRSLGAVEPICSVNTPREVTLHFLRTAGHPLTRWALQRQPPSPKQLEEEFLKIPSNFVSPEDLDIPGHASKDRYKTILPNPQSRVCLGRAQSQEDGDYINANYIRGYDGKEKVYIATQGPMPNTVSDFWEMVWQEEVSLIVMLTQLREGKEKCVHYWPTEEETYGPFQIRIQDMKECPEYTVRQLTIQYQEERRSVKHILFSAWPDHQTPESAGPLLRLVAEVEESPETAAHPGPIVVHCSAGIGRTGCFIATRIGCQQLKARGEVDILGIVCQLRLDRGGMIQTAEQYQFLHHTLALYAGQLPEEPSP

Hexokinase-1 = molecular target: T2, Hexokinase-1 (Homo sapiens, UniProt P19367); assay: HK1 enzyme activation by HKDC1 hits – biochemical, selectivity assay for HKDC1 activator project, dose response (AID 504762); type: functional
T2 sequence (P19367 whole entry): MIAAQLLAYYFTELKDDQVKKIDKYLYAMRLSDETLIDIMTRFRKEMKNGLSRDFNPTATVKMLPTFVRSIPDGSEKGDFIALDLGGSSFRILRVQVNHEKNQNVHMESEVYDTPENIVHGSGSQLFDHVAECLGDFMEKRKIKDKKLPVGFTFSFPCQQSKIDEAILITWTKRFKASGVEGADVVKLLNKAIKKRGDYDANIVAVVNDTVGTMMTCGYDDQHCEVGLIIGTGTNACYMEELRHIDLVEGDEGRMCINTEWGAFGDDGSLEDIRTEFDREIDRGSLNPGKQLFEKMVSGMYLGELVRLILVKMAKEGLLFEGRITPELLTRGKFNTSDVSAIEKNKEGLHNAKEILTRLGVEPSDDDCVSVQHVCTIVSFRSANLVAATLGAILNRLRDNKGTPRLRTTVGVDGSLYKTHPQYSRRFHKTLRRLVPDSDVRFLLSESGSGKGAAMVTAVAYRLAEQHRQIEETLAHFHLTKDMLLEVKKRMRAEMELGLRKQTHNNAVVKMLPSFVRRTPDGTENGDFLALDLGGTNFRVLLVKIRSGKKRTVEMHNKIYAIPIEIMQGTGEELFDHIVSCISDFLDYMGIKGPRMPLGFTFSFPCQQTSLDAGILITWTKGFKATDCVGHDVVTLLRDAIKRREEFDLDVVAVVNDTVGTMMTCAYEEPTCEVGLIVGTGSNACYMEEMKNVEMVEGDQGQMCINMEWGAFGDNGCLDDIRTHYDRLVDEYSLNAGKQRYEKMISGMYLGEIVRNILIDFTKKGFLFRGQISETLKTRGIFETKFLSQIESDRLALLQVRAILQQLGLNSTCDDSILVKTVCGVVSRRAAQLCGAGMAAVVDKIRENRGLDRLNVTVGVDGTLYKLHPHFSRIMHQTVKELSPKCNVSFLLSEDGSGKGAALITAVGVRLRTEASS

Hexokinase HKDC1 = molecular target: T3, Hexokinase HKDC1 (Homo sapiens, UniProt Q2TB90); assay: activation of HKDC1 glucose phosphorylation – biochemical, W721R variant, dose response (AID 504730); type: functional
T3 sequence (Q2TB90 whole entry): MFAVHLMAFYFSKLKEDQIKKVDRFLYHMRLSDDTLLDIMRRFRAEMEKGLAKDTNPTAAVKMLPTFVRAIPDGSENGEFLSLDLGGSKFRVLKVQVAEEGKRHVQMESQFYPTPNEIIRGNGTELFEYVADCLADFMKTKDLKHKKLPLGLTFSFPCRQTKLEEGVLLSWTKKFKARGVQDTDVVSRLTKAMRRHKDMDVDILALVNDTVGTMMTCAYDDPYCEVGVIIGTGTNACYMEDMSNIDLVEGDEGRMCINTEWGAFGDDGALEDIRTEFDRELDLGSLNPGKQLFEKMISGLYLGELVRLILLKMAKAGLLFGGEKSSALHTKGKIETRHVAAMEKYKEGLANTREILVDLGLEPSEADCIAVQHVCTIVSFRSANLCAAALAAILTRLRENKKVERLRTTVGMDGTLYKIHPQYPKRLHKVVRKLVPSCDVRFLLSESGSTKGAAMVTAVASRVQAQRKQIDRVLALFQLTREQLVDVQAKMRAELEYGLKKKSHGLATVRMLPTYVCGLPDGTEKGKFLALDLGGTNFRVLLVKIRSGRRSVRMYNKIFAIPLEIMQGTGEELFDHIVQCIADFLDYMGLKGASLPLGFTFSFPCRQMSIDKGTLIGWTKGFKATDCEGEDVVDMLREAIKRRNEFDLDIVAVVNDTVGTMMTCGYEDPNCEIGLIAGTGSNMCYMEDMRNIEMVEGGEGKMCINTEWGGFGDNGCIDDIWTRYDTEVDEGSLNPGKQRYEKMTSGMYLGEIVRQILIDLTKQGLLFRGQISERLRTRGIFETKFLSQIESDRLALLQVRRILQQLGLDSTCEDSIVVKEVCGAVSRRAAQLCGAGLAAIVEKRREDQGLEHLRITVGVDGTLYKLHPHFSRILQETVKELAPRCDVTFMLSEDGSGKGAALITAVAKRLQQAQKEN

[2] = molecular target: DNA dC->dU-editing enzyme APOBEC-3A (Homo sapiens, UniProt P31941); assay: Dose Response confirmation of small molecule APOBEC3A DNA Deaminase Inhibitors via a fluorescence-based single-stranded DNA deaminase assay. [Related pubchem assays (depositor defined):AID493011, AID493024]; type: functional
Sequence of DNA dC->dU-editing enzyme APOBEC-3A (P31941 whole entry): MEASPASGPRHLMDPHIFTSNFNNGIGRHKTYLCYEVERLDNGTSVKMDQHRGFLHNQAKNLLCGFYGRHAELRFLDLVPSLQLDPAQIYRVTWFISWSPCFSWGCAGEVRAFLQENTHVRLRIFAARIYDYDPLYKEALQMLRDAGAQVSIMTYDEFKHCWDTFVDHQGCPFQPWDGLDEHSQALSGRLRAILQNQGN

Genome polyprotein = Genome polyprotein (dengue virus type 2, UniProt P29990); assay: flavivirus cap methylation enzyme inhibition – biochemical, confirmation dose response, primary screen (AID 588689); type: functional
Sequence of Genome polyprotein (P29990 2492-3391 limits assumed): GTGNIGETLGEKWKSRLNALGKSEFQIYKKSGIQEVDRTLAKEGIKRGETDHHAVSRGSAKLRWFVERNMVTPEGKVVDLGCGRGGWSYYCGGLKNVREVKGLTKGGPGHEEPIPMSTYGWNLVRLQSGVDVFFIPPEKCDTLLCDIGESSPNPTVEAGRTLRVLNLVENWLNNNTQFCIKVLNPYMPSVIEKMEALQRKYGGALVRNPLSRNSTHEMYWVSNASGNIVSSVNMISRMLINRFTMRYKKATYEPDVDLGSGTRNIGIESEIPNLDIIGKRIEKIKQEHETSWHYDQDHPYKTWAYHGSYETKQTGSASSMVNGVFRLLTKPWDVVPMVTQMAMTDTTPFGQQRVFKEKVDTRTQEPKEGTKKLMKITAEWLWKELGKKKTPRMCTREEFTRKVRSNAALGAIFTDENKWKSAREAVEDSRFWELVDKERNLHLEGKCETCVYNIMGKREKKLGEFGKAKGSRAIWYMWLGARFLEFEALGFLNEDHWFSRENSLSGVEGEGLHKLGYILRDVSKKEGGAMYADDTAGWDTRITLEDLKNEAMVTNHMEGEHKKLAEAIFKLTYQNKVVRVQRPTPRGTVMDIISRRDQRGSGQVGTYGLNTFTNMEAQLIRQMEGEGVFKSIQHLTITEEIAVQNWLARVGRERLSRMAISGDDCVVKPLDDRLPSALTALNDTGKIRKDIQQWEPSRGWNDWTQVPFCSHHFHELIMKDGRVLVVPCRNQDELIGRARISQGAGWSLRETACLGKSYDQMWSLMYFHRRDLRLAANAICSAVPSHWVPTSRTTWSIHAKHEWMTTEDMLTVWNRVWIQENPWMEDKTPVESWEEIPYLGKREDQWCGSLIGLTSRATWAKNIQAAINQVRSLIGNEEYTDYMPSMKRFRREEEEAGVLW

[3] = molecular target: T4, Histone-lysine N-methyltransferase NSD2 (Homo sapiens, UniProt O96028); type: biochemical
T4 sequence (O96028 whole entry): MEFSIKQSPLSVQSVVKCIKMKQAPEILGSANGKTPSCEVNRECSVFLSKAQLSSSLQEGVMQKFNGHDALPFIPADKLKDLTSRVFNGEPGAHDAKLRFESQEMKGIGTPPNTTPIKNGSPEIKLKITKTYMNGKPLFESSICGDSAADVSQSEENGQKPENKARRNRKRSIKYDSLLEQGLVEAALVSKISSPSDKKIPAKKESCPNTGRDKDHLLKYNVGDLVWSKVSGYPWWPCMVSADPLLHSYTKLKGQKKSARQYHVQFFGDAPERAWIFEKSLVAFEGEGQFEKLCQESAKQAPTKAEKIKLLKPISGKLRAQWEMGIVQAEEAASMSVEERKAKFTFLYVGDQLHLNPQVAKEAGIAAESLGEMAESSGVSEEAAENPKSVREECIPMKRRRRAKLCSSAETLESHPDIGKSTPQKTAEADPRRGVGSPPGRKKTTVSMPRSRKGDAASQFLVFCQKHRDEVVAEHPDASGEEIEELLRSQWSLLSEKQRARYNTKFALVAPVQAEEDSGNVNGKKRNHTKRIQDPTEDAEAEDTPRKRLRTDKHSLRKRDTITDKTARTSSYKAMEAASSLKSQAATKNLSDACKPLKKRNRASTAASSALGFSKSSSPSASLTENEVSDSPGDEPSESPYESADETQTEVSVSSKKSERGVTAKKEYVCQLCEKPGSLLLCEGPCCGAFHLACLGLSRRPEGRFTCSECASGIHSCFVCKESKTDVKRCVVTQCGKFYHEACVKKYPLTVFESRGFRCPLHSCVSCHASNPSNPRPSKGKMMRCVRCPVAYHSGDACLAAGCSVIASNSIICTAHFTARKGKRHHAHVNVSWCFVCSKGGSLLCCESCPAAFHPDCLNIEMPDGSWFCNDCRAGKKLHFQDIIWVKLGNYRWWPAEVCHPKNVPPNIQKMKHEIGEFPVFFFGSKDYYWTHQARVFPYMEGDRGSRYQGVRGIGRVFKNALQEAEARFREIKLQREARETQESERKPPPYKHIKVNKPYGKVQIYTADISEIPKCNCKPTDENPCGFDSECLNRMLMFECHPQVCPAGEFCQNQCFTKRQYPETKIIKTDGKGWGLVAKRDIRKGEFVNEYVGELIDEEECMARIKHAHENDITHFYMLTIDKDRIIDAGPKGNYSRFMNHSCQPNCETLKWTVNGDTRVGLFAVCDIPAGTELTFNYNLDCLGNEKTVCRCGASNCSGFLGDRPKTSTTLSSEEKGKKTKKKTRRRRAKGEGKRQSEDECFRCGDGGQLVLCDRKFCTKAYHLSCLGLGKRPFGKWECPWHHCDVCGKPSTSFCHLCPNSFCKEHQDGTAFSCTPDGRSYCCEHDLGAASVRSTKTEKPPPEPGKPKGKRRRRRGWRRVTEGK

Vero = assay: viability of Vero cells under compound – cytotoxicity control for flavivirus capping enzyme inhibitors (AID 588742); type: functional; details: Chlorocebus sabaeus
[4] = molecular target: DNA dC->dU-editing enzyme APOBEC-3G (Homo sapiens, UniProt Q9HC16); type: functional;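 also: Dose-response counterscreen measuring inhibition of APOBEC3G DNA deaminase activity, run while confirming APOBEC3A inhibitors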
T-cell = assay: loss of vesicle association with mouse CD8+ T cells – mouse 2C CD8+ T cells, flow cytometry, dose response (AID 485284); type: functional
Integrin alpha-L = Integrin alpha-L (Mus musculus, UniProt P24063); assay: modulators of CD8 T cell-vesicle binding, dose response, powder samples, mouse 2C CD8+ cells (AID 504565); type: functional
Coagulation factor XII = molecular target: T5, Coagulation factor XII (Homo sapiens, UniProt P00748); assay: Factor XIIa Dose Response Confirmation from Single Well HTS. [Related pubchem assays (depositor defined):AID701]; type: functional
T5 sequence (P00748 whole entry): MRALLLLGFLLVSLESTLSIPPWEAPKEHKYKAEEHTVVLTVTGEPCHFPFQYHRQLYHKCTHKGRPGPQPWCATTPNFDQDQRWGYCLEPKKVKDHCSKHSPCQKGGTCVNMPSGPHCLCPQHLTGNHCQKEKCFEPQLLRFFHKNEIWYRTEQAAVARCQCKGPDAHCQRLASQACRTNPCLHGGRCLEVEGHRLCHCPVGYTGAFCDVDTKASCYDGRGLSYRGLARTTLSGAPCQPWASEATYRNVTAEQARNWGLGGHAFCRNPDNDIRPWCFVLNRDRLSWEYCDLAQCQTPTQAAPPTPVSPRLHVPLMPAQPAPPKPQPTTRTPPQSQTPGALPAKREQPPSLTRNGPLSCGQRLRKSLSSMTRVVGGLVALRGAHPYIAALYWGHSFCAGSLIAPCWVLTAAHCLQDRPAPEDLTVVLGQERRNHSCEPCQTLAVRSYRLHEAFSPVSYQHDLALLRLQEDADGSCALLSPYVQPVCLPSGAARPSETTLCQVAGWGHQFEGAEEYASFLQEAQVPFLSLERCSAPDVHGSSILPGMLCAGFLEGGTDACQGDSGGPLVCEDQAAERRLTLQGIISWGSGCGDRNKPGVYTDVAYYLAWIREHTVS

[5] = molecular target: Glucose-6-phosphate 1-dehydrogenase (Homo sapiens, UniProt P11413); assay: inhibition of Homo sapiens G6PD, dose series – biochemical, fluorescence, selectivity assay for P. falciparum G6PD inhibitor project, dose response (AID 504792); type: functional
[6] = molecular target: Eukaryotic translation initiation factor 4E (Mus musculus, UniProt P63073); assay: blockers of eIF4G binding by eIF4E – biochemical, TR-FRET, dose response (AID 855); type: functional;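 also: potency for disrupting eIF4E binding to eIF4GI seen as loss of FRET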
Sequence of Eukaryotic translation initiation factor 4E (P63073 whole entry): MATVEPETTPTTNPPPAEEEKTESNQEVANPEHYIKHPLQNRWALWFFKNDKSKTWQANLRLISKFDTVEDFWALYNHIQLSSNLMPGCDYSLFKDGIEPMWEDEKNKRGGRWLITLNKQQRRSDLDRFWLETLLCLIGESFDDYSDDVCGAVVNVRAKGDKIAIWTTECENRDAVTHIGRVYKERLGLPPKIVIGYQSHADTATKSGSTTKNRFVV

[7] = molecular target: T6, Voltage-gated N-type calcium channel alpha-1B subunit/Amyloid beta A4 precursor protein-binding family A member 1 (Homo sapiens, UniProt Q00975+Q02410); type: protein assay
T6 sequence (Q00975 whole entry): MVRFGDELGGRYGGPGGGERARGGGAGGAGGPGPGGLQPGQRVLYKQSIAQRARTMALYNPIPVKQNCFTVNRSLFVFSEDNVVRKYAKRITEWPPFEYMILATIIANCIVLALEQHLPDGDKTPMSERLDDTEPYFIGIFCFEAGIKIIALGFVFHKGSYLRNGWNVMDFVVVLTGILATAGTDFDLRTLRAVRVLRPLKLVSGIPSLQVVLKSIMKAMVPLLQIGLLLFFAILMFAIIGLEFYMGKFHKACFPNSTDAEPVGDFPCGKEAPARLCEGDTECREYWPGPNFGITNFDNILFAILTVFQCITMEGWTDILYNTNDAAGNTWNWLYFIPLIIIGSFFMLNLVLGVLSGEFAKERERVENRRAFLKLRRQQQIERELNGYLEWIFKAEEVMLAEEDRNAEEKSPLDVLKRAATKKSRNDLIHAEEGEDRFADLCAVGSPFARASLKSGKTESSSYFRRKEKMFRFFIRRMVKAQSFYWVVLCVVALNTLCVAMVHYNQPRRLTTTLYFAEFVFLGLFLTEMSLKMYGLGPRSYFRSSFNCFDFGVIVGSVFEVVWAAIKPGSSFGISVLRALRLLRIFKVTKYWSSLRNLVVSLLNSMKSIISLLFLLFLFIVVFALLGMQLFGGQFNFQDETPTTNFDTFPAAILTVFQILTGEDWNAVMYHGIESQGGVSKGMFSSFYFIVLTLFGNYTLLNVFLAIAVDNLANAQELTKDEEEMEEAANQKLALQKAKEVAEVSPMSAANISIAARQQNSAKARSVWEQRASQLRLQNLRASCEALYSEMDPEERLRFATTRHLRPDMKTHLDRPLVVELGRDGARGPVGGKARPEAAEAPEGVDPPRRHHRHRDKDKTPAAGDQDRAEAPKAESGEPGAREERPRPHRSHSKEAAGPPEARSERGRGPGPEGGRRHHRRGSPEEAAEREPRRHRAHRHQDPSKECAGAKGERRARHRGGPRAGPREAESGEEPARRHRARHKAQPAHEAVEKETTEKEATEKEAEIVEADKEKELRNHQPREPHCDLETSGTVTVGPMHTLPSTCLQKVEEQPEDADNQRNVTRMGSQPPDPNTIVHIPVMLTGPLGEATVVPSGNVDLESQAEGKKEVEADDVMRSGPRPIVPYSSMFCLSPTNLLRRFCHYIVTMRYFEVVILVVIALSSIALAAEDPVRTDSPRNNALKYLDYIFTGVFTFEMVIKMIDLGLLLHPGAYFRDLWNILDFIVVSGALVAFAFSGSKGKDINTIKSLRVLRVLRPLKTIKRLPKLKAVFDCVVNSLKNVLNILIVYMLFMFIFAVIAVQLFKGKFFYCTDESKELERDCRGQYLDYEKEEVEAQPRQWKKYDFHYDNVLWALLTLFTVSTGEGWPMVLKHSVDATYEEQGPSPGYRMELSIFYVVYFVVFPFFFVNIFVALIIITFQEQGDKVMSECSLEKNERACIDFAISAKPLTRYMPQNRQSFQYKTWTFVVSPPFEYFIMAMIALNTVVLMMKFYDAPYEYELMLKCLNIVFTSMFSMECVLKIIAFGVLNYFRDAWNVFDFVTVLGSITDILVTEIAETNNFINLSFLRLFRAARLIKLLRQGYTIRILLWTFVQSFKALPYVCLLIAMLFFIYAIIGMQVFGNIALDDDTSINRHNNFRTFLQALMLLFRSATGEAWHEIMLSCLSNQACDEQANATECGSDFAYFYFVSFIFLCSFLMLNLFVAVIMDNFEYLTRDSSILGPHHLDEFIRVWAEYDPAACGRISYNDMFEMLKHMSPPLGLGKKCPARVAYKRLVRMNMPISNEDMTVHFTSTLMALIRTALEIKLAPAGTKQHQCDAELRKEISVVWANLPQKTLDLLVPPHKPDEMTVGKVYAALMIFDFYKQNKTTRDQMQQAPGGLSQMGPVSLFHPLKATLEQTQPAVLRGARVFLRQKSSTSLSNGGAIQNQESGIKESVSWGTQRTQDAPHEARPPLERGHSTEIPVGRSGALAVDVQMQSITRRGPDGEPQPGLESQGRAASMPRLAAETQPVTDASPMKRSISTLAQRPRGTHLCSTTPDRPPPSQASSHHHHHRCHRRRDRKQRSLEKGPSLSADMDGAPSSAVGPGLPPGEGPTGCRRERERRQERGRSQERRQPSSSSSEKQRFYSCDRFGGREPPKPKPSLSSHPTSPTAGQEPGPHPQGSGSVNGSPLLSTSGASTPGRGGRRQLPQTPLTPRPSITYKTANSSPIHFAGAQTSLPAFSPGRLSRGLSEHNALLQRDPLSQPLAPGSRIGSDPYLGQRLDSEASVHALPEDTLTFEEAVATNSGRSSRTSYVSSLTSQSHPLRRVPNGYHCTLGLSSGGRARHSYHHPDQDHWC
T6 sequence (Q02410 whole entry): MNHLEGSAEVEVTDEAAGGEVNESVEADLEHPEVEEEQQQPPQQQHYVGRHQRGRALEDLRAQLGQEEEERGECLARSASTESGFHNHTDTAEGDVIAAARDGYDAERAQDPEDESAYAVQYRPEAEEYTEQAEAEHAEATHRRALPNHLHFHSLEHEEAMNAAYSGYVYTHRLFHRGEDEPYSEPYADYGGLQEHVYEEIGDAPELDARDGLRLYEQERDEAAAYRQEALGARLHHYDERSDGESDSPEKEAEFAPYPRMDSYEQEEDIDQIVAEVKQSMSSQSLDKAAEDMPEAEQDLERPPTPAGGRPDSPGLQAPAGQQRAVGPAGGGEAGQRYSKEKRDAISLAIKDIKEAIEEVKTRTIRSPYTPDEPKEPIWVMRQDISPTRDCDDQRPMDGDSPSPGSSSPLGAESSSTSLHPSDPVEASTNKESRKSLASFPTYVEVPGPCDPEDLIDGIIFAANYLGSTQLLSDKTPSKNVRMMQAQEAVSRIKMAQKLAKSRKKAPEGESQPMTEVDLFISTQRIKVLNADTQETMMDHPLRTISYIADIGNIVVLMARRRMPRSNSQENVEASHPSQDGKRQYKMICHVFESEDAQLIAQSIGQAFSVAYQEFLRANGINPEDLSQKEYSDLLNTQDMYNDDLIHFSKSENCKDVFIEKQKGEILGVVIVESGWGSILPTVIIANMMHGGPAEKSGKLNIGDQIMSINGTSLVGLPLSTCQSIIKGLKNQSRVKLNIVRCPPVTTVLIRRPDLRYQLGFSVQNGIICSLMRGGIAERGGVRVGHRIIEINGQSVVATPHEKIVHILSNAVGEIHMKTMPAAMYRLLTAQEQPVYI

[8] = molecular target: T7, Mannose-6-phosphate isomerase (Homo sapiens, UniProt P34949); assay: MPI inhibition at elevated mannose 6-phosphate – biochemical, fluorescence intensity, high mannose 6-phosphate, primary screen (AID 1220)
T7 sequence (P34949 whole entry): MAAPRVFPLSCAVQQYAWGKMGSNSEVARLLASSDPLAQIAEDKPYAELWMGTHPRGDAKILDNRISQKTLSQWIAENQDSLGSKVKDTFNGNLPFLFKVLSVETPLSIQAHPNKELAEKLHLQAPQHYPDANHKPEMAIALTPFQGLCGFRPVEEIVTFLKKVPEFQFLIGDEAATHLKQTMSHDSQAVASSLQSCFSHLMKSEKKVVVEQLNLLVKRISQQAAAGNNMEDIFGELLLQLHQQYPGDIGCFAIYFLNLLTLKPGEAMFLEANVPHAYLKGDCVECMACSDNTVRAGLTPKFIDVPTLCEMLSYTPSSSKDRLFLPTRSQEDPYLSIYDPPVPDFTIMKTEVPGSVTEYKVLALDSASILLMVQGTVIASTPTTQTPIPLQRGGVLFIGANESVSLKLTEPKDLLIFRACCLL

[9] = molecular target: Bifunctional protein GlmU (Mycobacterium tuberculosis, UniProt P9WMN3); assay: Inhibitors of Mycobacterial Glucosamine-1-phosphate acetyl transferase (GlmU). Secondary screen.; parameters: species or system Mycobacterium tuberculosis H37Rv
[10] = molecular target: Induced myeloid leukemia cell differentiation protein Mcl-1 (Homo sapiens, UniProt Q07820); type: functional
Sequence of Induced myeloid leukemia cell differentiation protein Mcl-1 (Q07820 whole entry): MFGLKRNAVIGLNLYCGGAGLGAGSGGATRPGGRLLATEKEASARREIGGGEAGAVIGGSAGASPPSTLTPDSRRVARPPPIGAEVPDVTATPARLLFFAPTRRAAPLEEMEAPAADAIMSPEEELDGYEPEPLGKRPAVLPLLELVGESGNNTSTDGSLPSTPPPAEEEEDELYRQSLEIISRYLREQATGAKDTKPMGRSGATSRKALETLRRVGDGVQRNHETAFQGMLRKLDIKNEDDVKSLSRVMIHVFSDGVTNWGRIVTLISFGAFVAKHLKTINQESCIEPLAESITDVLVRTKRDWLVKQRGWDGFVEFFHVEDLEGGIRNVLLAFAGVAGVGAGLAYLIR

[11] = molecular target: T6, Voltage-gated N-type calcium channel alpha-1B subunit/Amyloid beta A4 precursor protein-binding family A member 1; type: protein assay; remark: listed apart in the source

Structure (SMILES): Cc1ccc(NC(=O)Nc2ccc(S(N)(=O)=O)cc2)cc1
- IC50 [1]: 47.6 µM (active)

Structure (SMILES): Nc1nc(-c2cccc(Br)c2)cs1
- EC50 (Hexokinase-1): 49.3 µM (inactive)
- EC50 (Hexokinase HKDC1): 31.8 µM (inactive)

Structure (SMILES): CC(C)C1Nc2ccc(C(=O)O)cc2C2C=CCC21 (stereo unspecified)
- IC50 [2]: 21.8 µM (active)
- IC50 (Genome polyprotein): 38.7 µM (active)
- AC50 [3]: > 20 µM (inactive)
- CC50 (Vero): > 40 µM (active)
- IC50 [4]: 16.2 µM (active)

Structure (SMILES): Cc1cc(Cl)c(OCCCSc2nc(C)cc(O)n2)c(Br)c1
- EC50 (T-cell): 56.6 µM (inactive)
- EC50 (Integrin alpha-L): 17.1 µM (active)

Structure (SMILES): Cc1cc(NC(=O)COC(=O)c2c(C)nn(Cc3ccccc3)c2C)no1
- IC50 (Coagulation factor XII): > 50 µM (inactive)

Structure (SMILES): Oc1ccc(/C=N/N=C(c2ccccc2)c2ccccc2)c(O)c1O
- IC50 [5]: 79.2 µM (inactive)
- IC50 (Genome polyprotein): 23.4 µM (active)
- IC50 [6]: > 64 µM (inactive)
- IC50 [7]: 10.8 µM (active)
- IC50 [8]: 12.1 µM (active)
- IC50 [9]: 19.3 µM (active)
- AC50 [3]: 0.635 µM (active)
- CC50 (Vero): 31.3 µM (active)
- IC50 [10]: 4.44 µM (active)
- IC50 [11]: 3.27 µM (active)
